Values quoted from earlier work, collected in publication PMC9150182 (ACS Sensors, 2022).

Tests used:
[1] = system: 5-HT4 isoform g 302Y>F; conditions: 302Y>F variant, COS7 cells
[2] = system: 5-HT4 isoform g 302Y>F; conditions: 302Y>F variant, COS7 cells; remark: listed apart in the source
[3] = biological target: T1, 5-HT1A (Homo sapiens, UniProt P08908); conditions: yeast, Gpa1/Gαi3 chimera
T1 sequence (P08908 1-422): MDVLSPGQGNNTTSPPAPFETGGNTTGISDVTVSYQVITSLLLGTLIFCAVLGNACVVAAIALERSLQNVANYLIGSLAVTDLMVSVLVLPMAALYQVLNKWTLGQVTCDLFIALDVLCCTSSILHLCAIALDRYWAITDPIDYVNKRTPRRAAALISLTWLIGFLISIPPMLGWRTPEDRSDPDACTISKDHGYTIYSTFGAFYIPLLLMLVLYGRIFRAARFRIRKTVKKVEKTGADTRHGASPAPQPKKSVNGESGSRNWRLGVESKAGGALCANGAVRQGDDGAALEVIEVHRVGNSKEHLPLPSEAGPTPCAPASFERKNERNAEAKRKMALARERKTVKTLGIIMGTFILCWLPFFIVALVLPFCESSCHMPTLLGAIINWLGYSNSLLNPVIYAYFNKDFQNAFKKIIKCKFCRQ

decrease of affinity to the receptor [1] | Structure (SMILES) | effect of variant on serotonin-induced activity [2] | increase over basal fluorescence after activation with serotonin [3]
13 fold | Cn1cc(C(=O)OCC2CCN(CCNS(C)(=O)=O)CC2)c2ccccc21 [GR113808] | – | –
– | NCCc1c[nH]c2ccc(O)cc12 [serotonin] | did not affect serotonin-induced activity | 300%
